In ChEMBL document CHEMBL4627246, “Pyroglutamide-Based P2X7 Receptor Antagonists Targeting Inflammatory Bowel Disease” (J Med Chem, 2020):

Columns and labels:
Format in all cases: cell-based
786-0 = assay: Cytotoxicity against human 786-0 cells assessed as effect on cell growth at 10 uM incubated for 48 hrs by sulforhodamine B assay; conditions: 786-0, 48 h
A498 = assay: Cytotoxicity against human A498 cells assessed as effect on cell growth at 10 uM incubated for 48 hrs by sulforhodamine B assay; conditions: a498, 48 h
HCC 2998 = assay: Cytotoxicity against human HCC2998 cells assessed as effect on cell growth at 10 uM incubated for 48 hrs by sulforhodamine B assay; conditions: hcc 2998, 48 h
HOP-92 = assay: Cytotoxicity against human HOP92 cells assessed as effect on cell growth at 10 uM incubated for 48 hrs by sulforhodamine B assay; conditions: hop-92, 48 h
HT-29 = assay: Cytotoxicity against human HT-29 cells assessed as effect on cell growth at 10 uM incubated for 48 hrs by sulforhodamine B assay; conditions: ht-29, 48 h
NCI-H23 = assay: Cytotoxicity against human NCI-H23 cells assessed as effect on cell growth at 10 uM incubated for 48 hrs by sulforhodamine B assay; conditions: nci-h23, 48 h
MDA-MB-231 = assay: Cytotoxicity against human MDA-MB-231 cells assessed as effect on cell growth at 10 uM incubated for 48 hrs by sulforhodamine B assay; conditions: mda-mb-231, 48 h
SK-MEL-28 = assay: Cytotoxicity against human SK-MEL-28 cells assessed as effect on cell growth at 10 uM incubated for 48 hrs by sulforhodamine B assay; conditions: sk-mel-28, 48 h
OVCAR-5 = assay: Cytotoxicity against human OVCAR5 cells assessed as effect on cell growth at 10 uM incubated for 48 hrs by sulforhodamine B assay; conditions: ovcar-5, 48 h
OVCAR-8 = assay: Cytotoxicity against human OVCAR8 cells assessed as effect on cell growth at 10 uM incubated for 48 hrs by sulforhodamine B assay; conditions: ovcar-8, 48 h
BT-549 = assay: Cytotoxicity against human BT549 cells assessed as effect on cell growth at 10 uM incubated for 48 hrs by sulforhodamine B assay; conditions: bt-549, 48 h
SN12C = assay: Cytotoxicity against human SN12C cells assessed as effect on cell growth at 10 uM incubated for 48 hrs by sulforhodamine B assay
NCI-H322M = assay: Cytotoxicity against human NCI-H322M cells assessed as effect on cell growth at 10 uM incubated for 48 hrs by sulforhodamine B assay
A549 = assay: Cytotoxicity against human A549/ATCC cells assessed as effect on cell growth at 10 uM incubated for 48 hrs by sulforhodamine B assay; conditions: a549, 48 h
SF-268 = assay: Cytotoxicity against human SF268 cells assessed as effect on cell growth at 10 uM incubated for 48 hrs by sulforhodamine B assay; conditions: sf-268, 48 h
NCI-H226 = assay: Cytotoxicity against human NCI-H226 cells assessed as effect on cell growth at 10 uM incubated for 48 hrs by sulforhodamine B assay; conditions: nci-h226, 48 h
COLO 205 = assay: Cytotoxicity against human COLO205 cells assessed as effect on cell growth at 10 uM incubated for 48 hrs by sulforhodamine B assay; conditions: colo 205, 48 h
SR = assay: Cytotoxicity against human SR cells assessed as effect on cell growth at 10 uM incubated for 48 hrs by sulforhodamine B assay
SF-539 = assay: Cytotoxicity against human SF539 cells assessed as effect on cell growth at 10 uM incubated for 48 hrs by sulforhodamine B assay; conditions: sf-539, 48 h
SW-620 = assay: Cytotoxicity against human SW620 cells assessed as effect on cell growth at 10 uM incubated for 48 hrs by sulforhodamine B assay; conditions: sw-620, 48 h

Measured: Activity

O=C(NCc1ccc(Cl)cc1Cl)[C@@H]1CCC(=O)N1Cc1ccccc1
Non-Toxic: all assays above

O=C(NCCc1ccc(Cl)cc1Cl)[C@@H]1CCC(=O)N1c1ccccc1
Non-Toxic: all assays above

O=C(NCc1ccc(Cl)cc1Cl)[C@@H]1CCC(=O)N1c1cncs1
Non-Toxic: all assays above

COc1cc(CN/C=C2\C[C@@H](C(=O)NCc3ccc(Cl)cc3Cl)NC2=O)cc(OC)c1OC
Non-Toxic: all assays above

CN(C)C(=O)[C@@H]1CCC(=O)N1
Non-Toxic: all assays above

O=C(NCc1ccccc1Cl)[C@@H]1CCC(=O)N1c1ccccc1
Non-Toxic: all assays above

O=C(NCc1ccc(Cl)cc1Cl)c1ccccn1
Non-Toxic: all assays above

O=C(NCc1ccc(Cl)cc1Cl)[C@@H]1CCC(=O)N1C(c1ccc(Cl)cc1)c1ccc(Cl)cc1
Non-Toxic: all assays above
